The results in this text go back to ChEMBL document CHEMBL4400538, “Discovery of Carboline Derivatives as Potent Antifungal Agents for the Treatment of Cryptococcal Meningitis” (J Med Chem, 2019).

Each structure is given as a SMILES string. Converted amounts (≈) assume the structure as drawn. The source made the active and inactive calls. The rule behind the calls is not given here.

In test [1] the test system is Cryptococcus neoformans. As to the kind of experiment: Antifungal activity against Cryptococcus neoformans H99 after 72 hrs by growth curve assay. In kind it is functional. As to conditions: var grubii H99 .
The subject of test [2] is Cryptococcus neoformans. As to the kind of experiment: Antifungal activity against Cryptococcus neoformans H99 infected in ICR mouse assessed as reduction in brain fungal load at 20 mg/kg, po administered daily for 5 days. Format: functional, organism-based. The following applies: var grubii H99.
The subject of test [3] is Cryptococcus neoformans. As to the kind of experiment: Antifungal activity against Cryptococcus neoformans ATCC 34877 after 72 hrs by spectrophotometery. Format: functional. As to conditions: ATCC 34877, 72 h.
Test [4] deals with Cryptococcus neoformans. Nature of the test: Induction of cell cycle arrest in Cryptococcus neoformans H99 assessed as accumulation at G1 phase at 4 ug/ml after 24 hrs by propidium iodide-staining based FACS analysis (reference value: 44.50%). Format: functional, var grubii H99.
The test system of the next test is Nannizzia gypsea. Nature of the test: Antifungal activity against Microsporum gypseum MZC after 48 hrs by spectrophotometery. In kind it is functional.
The test system of test [5] is Cryptococcus neoformans. As to the kind of experiment: Inhibition of melanin production in Cryptococcus neoformans H99 at 2.5 ug/ml. Format: functional, organism-based. As to conditions: var grubii H99.
For test [6], the system named is Cryptococcus neoformans. As to the kind of experiment: Antibiofilm activity against Cryptococcus neoformans H99 assessed as inhibition of cellular surface hydrophobicity at 10 ug/ml incubated for 24 hrs by water-hydrocarbon two-phase assay. In kind it is functional, organism-based. The following applies: var grubii H99.
A further test concerns Candida parapsilosis. Nature of the test: Antifungal activity against Candida parapsilosis 5008 after 48 hrs by spectrophotometery. Format: functional. The following applies: Lodderomyces parapsilosis, 5008, 48 h.
Test [7] concerns Cryptococcus neoformans. As to the kind of experiment: Antifungal activity against Cryptococcus neoformans H99 assessed as damaged cell membranes at 4 ug/ml after 24 hrs by TEM analysis. The following applies: var grubii H99. Format: functional, organism-based.
The subject of test [8] is Cryptococcus neoformans. Nature of the test: Induction of cell cycle arrest in Cryptococcus neoformans H99 assessed as accumulation at G2 phase at 4 ug/ml after 24 hrs by propidium iodide-staining based FACS analysis (reference value: 3.86%). In kind it is functional, var grubii H99.
For a further test, the system named is Nakaseomyces glabratus. As to the kind of experiment: Antifungal activity against Candida glabrata 8535 after 48 hrs by spectrophotometery. In kind it is functional. As to conditions: Nakaseomyces glabratus, 8535, 48 h.
Another test concerns Trichophyton rubrum. Nature of the test: Antifungal activity against Trichophyton rubrum TIA after 48 hrs by spectrophotometery. In kind it is functional.
For a further test, the system named is Cryptococcus gattii. Nature of the test: Antifungal activity against Cryptococcus gattii ATCC 14116 after 72 hrs by spectrophotometery. As to conditions: ATCC 14116, 72 h.
For test [9], the system named is Cryptococcus neoformans. As to the kind of experiment: Antifungal activity against Cryptococcus neoformans H99 assessed as up-regulation of Cdc25C expression at 2 to 4 ug/ml after 24 hrs by Western blot analysis. Format: functional, organism-based. As to conditions: var grubii H99.
Test [10] deals with Cryptococcus neoformans. As to the kind of experiment: Antifungal activity against Cryptococcus neoformans H99 assessed as up-regulation of cyclin B1 expression at 2 to 4 ug/ml after 24 hrs by Western blot analysis. In kind it is functional, organism-based. The following applies: var grubii H99.
The test system of a further test is Aspergillus fumigatus. As to the kind of experiment: Antifungal activity against Aspergillus fumigatus 7544 after 48 hrs by spectrophotometery. As to conditions: Aspergillus fumigatus, 7544, 48 h. Format: functional.
The test system of test [11] is Cryptococcus neoformans. As to the kind of experiment: Antifungal activity against Cryptococcus neoformans H99 assessed as cell wall collapse at 4 ug/ml after 24 hrs by TEM analysis. In kind it is functional, organism-based. The following applies: var grubii H99.
The subject of test [12] is Candida albicans. As to the kind of experiment: Antifungal activity against Candida albicans 7781 after 48 hrs by spectrophotometery. Format: functional. The following applies: Candida albicans, 7781, 48 h.
Test [13] concerns Cryptococcus neoformans. Nature of the test: Induction of cell cycle arrest in Cryptococcus neoformans H99 assessed as accumulation at S phase at 4 ug/ml after 24 hrs by propidium iodide-staining based FACS analysis (reference value: 51.64%). Format: functional, var grubii H99.
Test [14] relates to Candida albicans. Nature of the test: Antifungal activity against Candida albicans 0304103 after 48 hrs by spectrophotometery. Format: functional. The following applies: Candida albicans, 0304103, 48 h.
Test [15] has as its system Cryptococcus neoformans. Nature of the test: Antifungal activity against Cryptococcus neoformans H99 assessed as up-regulation of CDK1 expression at 2 to 4 ug/ml after 24 hrs by Western blot analysis. Format: functional, organism-based. The following applies: var grubii H99.
The subject of test [16] is Cryptococcus neoformans. As to the kind of experiment: Antifungal activity against Cryptococcus neoformans H99 after 48 hrs by growth curve assay. The following applies: var grubii H99 . In kind it is functional.
The test system of test [17] is Cryptococcus neoformans. Nature of the test: Antifungal activity against Cryptococcus neoformans H99 assessed as fragmented nuclei at 4 ug/ml after 24 hrs by TEM analysis. Format: functional, organism-based. The following applies: var grubii H99.

As for `OC(Cn1cncn1)(Cn1cncn1)c1ccc(F)cc1F` [FLUCONAZOLE], the MIC80 was 2 µg/mL (≈ 6.53 µM) in the test with Cryptococcus neoformans [1]; 4 µg/mL (≈ 13.1 µM) against Cryptococcus neoformans [3]; 16 µg/mL (≈ 52.2 µM) against Nannizzia gypsea; 32 µg/mL (≈ 104 µM) with Candida parapsilosis; 4 µg/mL (≈ 13.1 µM) in the test with Nakaseomyces glabratus; 2 µg/mL (≈ 6.53 µM) in the test with Trichophyton rubrum. Besides, the MIC80 against Cryptococcus gattii was 4 µg/mL (≈ 13.1 µM); in the test on Aspergillus fumigatus it was greater than 64 µg/mL; in the test with Candida albicans [12], 32 µg/mL (≈ 104 µM); with Candida albicans [14], greater than 64 µg/mL; with Cryptococcus neoformans [16] it was 4 µg/mL (≈ 13.1 µM). Moreover, the outcome in the test on Cryptococcus neoformans [2], in the test on Cryptococcus neoformans [7] and in the test on Cryptococcus neoformans [17] was Active. The Activity in the test on Cryptococcus neoformans [4] came out at 50.86%; in the test on Cryptococcus neoformans [8] it was 0.96%; in the test on Cryptococcus neoformans [13], 48.17%. For the same compound, the inhibition entry with Cryptococcus neoformans [5] is “inactive”. Also, the result in the test on Cryptococcus neoformans [6], with Cryptococcus neoformans [9], with Cryptococcus neoformans [10], in the test on Cryptococcus neoformans [11] and with Cryptococcus neoformans [15] was inactive.
